The target in assay [1] is Cholinesterase (Equus caballus, UniProt P81908).
Description: Inhibition of Equine serum BChE using butyrylthiocholine iodide as a substrate after 20 mins by Ellman's assay
Assay [2] has as its target T1, Acetylcholinesterase (Bos taurus, UniProt P23795).
T1 sequence (P23795 whole entry): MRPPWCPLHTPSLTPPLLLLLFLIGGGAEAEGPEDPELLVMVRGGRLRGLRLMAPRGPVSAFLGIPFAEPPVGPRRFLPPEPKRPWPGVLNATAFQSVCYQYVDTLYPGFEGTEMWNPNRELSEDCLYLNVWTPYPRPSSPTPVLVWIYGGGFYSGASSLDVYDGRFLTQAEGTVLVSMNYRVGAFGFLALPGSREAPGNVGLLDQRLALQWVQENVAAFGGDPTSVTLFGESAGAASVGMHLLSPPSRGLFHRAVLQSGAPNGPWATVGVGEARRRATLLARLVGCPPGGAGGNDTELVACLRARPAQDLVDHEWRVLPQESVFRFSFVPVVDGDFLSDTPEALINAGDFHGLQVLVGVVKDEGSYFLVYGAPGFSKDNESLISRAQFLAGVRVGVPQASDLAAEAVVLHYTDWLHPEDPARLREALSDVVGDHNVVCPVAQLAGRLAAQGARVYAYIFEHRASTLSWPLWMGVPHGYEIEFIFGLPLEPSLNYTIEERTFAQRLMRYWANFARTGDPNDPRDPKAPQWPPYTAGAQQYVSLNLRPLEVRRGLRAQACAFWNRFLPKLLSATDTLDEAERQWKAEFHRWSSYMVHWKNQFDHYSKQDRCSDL
Description: Inhibition of bovine erythrocyte AChE using acetylthiocholine iodide as a substrate after 20 mins by Ellman's assay

A short description of assay [3]: Selectivity index, ratio of IC50 for bovine erythrocyte AChE to IC50 for Equine serum BChE.
The target in assay [4] is Muscarinic acetylcholine receptor. The assay can be described thus: Inhibition of muscarinic receptor in rat brain synaptosomes. It is filed as subcellular.
In assay [5] the target is Cholinesterase (Equus caballus) (UniProt P81908). The experiment in a line: Inhibition of Equine serum BChE using butyrylthiocholine iodide as a substrate at 10 uM after 20 mins by Ellman's assay. (Ellman's reagent forms a yellow product with free thiols.)
Chain of Cholinesterase (Equus caballus) (P81908 whole entry): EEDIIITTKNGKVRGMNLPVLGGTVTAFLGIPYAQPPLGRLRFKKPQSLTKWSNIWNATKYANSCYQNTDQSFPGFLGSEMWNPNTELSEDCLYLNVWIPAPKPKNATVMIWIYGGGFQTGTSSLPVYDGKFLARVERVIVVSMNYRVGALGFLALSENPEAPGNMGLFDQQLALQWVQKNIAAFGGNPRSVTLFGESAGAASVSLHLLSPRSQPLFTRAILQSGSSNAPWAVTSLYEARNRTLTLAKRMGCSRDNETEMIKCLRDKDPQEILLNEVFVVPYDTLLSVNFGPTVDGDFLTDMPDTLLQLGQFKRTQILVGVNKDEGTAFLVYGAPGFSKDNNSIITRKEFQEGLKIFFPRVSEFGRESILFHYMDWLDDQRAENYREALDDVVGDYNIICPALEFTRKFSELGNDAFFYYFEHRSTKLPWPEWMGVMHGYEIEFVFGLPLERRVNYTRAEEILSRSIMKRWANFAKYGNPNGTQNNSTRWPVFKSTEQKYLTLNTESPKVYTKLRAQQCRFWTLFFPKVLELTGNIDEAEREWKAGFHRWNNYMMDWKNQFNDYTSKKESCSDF
The target in assay [6] is T2, Acetylcholinesterase (Homo sapiens, UniProt P22303).
T2 sequence (P22303 whole entry): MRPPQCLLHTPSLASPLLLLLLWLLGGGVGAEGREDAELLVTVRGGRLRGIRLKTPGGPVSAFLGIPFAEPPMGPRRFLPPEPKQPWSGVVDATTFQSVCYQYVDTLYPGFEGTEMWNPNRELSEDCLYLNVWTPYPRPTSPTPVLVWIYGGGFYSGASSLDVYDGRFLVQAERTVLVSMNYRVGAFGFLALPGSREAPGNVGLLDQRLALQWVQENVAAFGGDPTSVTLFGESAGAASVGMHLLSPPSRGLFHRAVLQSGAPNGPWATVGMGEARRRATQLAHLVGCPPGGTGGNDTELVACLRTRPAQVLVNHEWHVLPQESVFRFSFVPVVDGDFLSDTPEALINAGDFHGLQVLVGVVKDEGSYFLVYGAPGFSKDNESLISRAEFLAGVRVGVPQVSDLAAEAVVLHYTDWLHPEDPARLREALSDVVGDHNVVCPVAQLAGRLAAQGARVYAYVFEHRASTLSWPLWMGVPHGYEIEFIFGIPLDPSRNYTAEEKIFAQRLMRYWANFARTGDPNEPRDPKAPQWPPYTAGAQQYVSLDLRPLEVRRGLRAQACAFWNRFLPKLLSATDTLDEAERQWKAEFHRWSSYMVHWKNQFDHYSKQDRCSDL
Description: Inhibition of human plasma AChE
The target of assay [7] is Cholinesterase (Homo sapiens, UniProt P06276).
Chain of Cholinesterase (Homo sapiens, UniProt P06276) (P06276 whole entry, looked up): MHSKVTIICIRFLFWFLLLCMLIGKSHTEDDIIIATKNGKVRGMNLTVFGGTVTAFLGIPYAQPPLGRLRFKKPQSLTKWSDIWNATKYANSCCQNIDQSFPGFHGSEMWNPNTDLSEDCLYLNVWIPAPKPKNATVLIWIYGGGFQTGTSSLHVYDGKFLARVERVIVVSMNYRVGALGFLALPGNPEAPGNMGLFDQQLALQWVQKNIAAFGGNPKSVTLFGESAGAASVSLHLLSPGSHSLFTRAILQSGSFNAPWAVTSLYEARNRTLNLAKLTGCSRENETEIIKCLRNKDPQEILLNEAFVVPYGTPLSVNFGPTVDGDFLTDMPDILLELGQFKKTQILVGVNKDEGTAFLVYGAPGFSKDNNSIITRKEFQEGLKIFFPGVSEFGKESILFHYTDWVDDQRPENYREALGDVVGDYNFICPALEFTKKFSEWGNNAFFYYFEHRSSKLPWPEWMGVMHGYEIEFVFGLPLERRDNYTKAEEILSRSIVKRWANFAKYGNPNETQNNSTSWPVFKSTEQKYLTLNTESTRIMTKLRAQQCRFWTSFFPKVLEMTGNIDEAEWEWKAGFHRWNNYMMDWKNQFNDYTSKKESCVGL
Description: Inhibition of human plasma BChE
Assay [8] deals with T2, Acetylcholinesterase. This is another data set of the same source.
Description: Inhibition of human erythrocytes AChE

Chain of Cholinesterase (Equus caballus, UniProt P81908) (P81908 whole entry): as the sequence (P81908 whole entry) above

At Cholinesterase [1], `c1ccc(C(SC[C@@H]2CCCN3CCCC[C@H]23)c2ccccc2)cc1` displayed a 50% inhibitory concentration (IC50) of 3300 nM.

As for `OC1(C[C@@H]2CCCN3CCCC[C@H]23)c2ccccc2Sc2ccccc21`, on Cholinesterase [1], inhibition was half-maximal at 950 nM (IC50).

Consider `O=C(CSC[C@@H]1CCCN2CCCC[C@H]12)N1c2ccccc2Sc2ccccc21`, for which the half-inhibitory concentration (IC50) against Cholinesterase [1] amounted to 430 nM.

`O=C(CCSC[C@@H]1CCCN2CCCC[C@H]12)N1c2ccccc2Sc2ccccc21` gave an IC50 on Cholinesterase [1] of 750 nM.

Consider `c1ccc(C(C[C@@H]2CCCN3CCCC[C@H]23)c2ccccc2)cc1`, for which the figures for the IC50 at Acetylcholinesterase [2] and against Cholinesterase [1] were 6700 nM and 5500 nM, respectively. Also, the Ratio IC50 in assay [3] was 1.2.

As to `COc1ccc2nc3cc(Cl)ccc3c(NCCCSC[C@@H]3CCCN4CCCC[C@H]34)c2c1`, the IC50 stood at 220 nM on Acetylcholinesterase [2] and 690 nM on Cholinesterase [1]. Besides, the Ratio IC50 in assay [3] was 0.32.

Consider `COc1ccc2nc3cc(Cl)ccc3c(NC[C@@H]3CCCN4CCCC[C@H]34)c2c1`, for which the half-inhibitory concentration (IC50) against Acetylcholinesterase [2] was found to be 7300 nM; against Cholinesterase [1], 870 nM. Also, the Ratio IC50 in assay [3] amounted to 8.4.

`c1ccc2c(c1)-c1ccccc1C2C[C@H]1CCCN2CCCC[C@H]12`: the 50% inhibitory concentration (IC50) against Cholinesterase [1] stood at 1100 nM.

`C(=C1c2ccccc2CCc2ccccc21)[C@@H]1CCCN2CCCC[C@H]12` returned an IC50 on Cholinesterase [1] of 4200 nM.

As to `c1ccc2c(c1)Sc1ccccc1N2C[C@@H]1CCCN2CCCC[C@H]12` [LUPINYLPHENOTHIAZINE], the IC50 was determined as 2000 nM at Cholinesterase [1] and 100 nM in assay [4].

`C[N+]12CCCC[C@@H]1[C@H](CN1c3ccccc3Sc3ccccc31)CCC2` (stereo partly specified): the half-inhibitory concentration (IC50) against Cholinesterase [1] is 510 nM.

Consider `O=c1ccc2cc(OCCCCCSC[C@@H]3CCCN4CCCC[C@H]34)ccc2o1`, for which the figures for the half-inhibitory concentration (IC50) on Acetylcholinesterase [2] and against Cholinesterase [1] were 680 nM and 5800 nM, respectively. In addition, the Ratio IC50 in assay [3] stood at 0.12.

Compound `O=C1Nc2cccnc2N(CSC[C@@H]2CCCN3CCCC[C@H]23)c2ccccc21` returned an inhibition in assay [5] of 34%.

On to `c1ccc2c(c1)[Se]c1ccccc1N2C[C@@H]1CCCN2CCCC[C@H]12`, for which the IC50 on Cholinesterase [1] was 1100 nM.

In the case of `c1ccc(N(C[C@@H]2CCCN3CCCC[C@H]23)c2ccccc2)cc1`, the values for the IC50 on Acetylcholinesterase [2] and at Cholinesterase [1] were 8900 nM and 8100 nM, respectively. Further, in assay [3], the Ratio IC50 amounted to 1.1.

Regarding `C1=Cc2ccccc2N(C[C@@H]2CCCN3CCCC[C@H]23)c2ccccc21`, the IC50 on Acetylcholinesterase [2] worked out at 8300 nM; on Cholinesterase [1], 2200 nM. Moreover, the Ratio IC50 in assay [3] came to 3.8.

On to `C[N+]12CCCC[C@@H]1[C@H](CC1c3ccccc3Sc3ccccc31)CCC2` (stereo partly specified), for which, at Cholinesterase [1], half-maximal inhibition (IC50) was put at 410 nM.

In turn, `CC(SC[C@@H]1CCCN2CCCC[C@H]12)C(=O)N1c2ccccc2Sc2ccccc21` (stereo partly specified) showed a half-maximal inhibitory concentration (IC50) against Cholinesterase [1] of 470 nM.

In turn, `COc1ccc2c(c1)N(C(=O)CSC[C@@H]1CCCN3CCCC[C@H]13)c1ccccc1S2` displayed an IC50 against Cholinesterase [1] of 1200 nM.

Compound `O=C(C[C@H]1CCCN2CCCC[C@H]12)N1c2ccccc2Sc2ccccc21` displayed a 50% inhibitory concentration (IC50) on Cholinesterase [1] of 4800 nM.

In turn, `C(=C1c2ccccc2Sc2ccccc21)[C@@H]1CCCN2CCCC[C@H]12` had an IC50 at Cholinesterase [1] of 930 nM.

The compound `COc1ccc2nc3cc(Cl)ccc3c(SC[C@@H]3CCCN4CCCC[C@H]34)c2c1` gave a half-maximal inhibitory concentration (IC50) against Cholinesterase [1] of 4700 nM.

As to `O=C(CCCCSC[C@@H]1CCCN2CCCC[C@H]12)N1c2ccccc2Sc2ccccc21`, the IC50 came to 5700 nM against Acetylcholinesterase [2] and 890 nM against Cholinesterase [1]. Besides, the Ratio IC50 in assay [3] came out at 6.4.

For the compound `O=C(CCCSC[C@@H]1CCCN2CCCC[C@H]12)N1c2ccccc2Sc2ccccc21`, the IC50 against Acetylcholinesterase [2] is 6800 nM; at Cholinesterase [1], 740 nM. Moreover, the Ratio IC50 in assay [3] amounted to 9.2.

`c1ccc2c(c1)-c1ccccc1C2C[C@@H]1CCCN2CCCC[C@H]12` had a concentration for half-maximal inhibition (IC50) against Cholinesterase [1] of 630 nM.

Consider `c1ccc2c(c1)Sc1ccccc1N2C1CN2CCC1CC2` (stereo unspecified), for which the IC50 against Cholinesterase [1] came out at 3000 nM; in assay [4], 100 nM.

For the compound `C1=Cc2ccccc2C(=C[C@@H]2CCCN3CCCC[C@H]23)c2ccccc21`, the 50% inhibitory concentration (IC50) against Acetylcholinesterase [2] was 8300 nM; against Cholinesterase [1] it was 2000 nM. Also, the Ratio IC50 in assay [3] was determined as 4.1.

`CCCCCCCNC(=O)Oc1ccc2c(c1)[C@]1(C)CCN(C)[C@@H]1N2C` [EPTASTIGMINE]: the IC50 at Acetylcholinesterase [6] came to 22000 nM.

As for `c1ccc2c(c1)c1ccccc1n2C[C@@H]1CCCN2CCCC[C@H]12`, the IC50 against Cholinesterase [1] came out at 2000 nM.

Turning to `O=c1ccc2cc(OCCCNC[C@@H]3CCCN4CCCC[C@H]34)ccc2o1`, the inhibition in assay [5] was 40%. Further, 6600 nM corresponded to half-maximal inhibition at Acetylcholinesterase [2] (IC50).

For the compound `c1ccc2c(c1)[Se]c1ccccc1N2C[C@H]1CCCN2CCCC[C@H]12`, on Cholinesterase [1], half-maximal inhibition (IC50) was put at 870 nM.

Take `CCN(CC)C(C)CN1c2ccccc2Sc2ccccc21` (stereo unspecified) [ETHOPROPAZINE]: the IC50 against Cholinesterase [1] was 720 nM; against Cholinesterase [7], 300 nM.

In the case of `COc1ccc2nc3cc(Cl)ccc3c(NCCSC[C@@H]3CCCN4CCCC[C@H]34)c2c1`, the figures for the IC50 at Acetylcholinesterase [2] and against Cholinesterase [1] were 840 nM and 340 nM, respectively. Further, in assay [3], the Ratio IC50 worked out at 2.5.

`CN(C)CC(C)(C)c1cccc(OC(=O)NCCCCN2CCOCC2)c1`: the IC50 against Acetylcholinesterase [6] was 100000 nM; on Cholinesterase [7], 9 nM; at Acetylcholinesterase [8] it was 100000 nM.

`FC(F)(F)c1ccc2c(c1)N(C[C@@H]1CCCN3CCCC[C@H]13)c1ccccc1S2`: at Cholinesterase [1], inhibition was half-maximal at 4000 nM (IC50).

For the compound `c1ccc2c(c1)Oc1ccccc1N2C[C@@H]1CCCN2CCCC[C@H]12`, the half-inhibitory concentration (IC50) at Cholinesterase [1] was determined as 2200 nM.

With `c1ccc2c(c1)CCc1ccccc1N2CSC[C@@H]1CCCN2CCCC[C@H]12`, the IC50 at Cholinesterase [1] came to 860 nM.

Consider `CN1CCCC(CC2c3ccccc3Sc3ccccc32)C1` (stereo unspecified) [METHIXENE], for which the half-inhibitory concentration (IC50) against Cholinesterase [1] is 1600 nM.

As for `CC(C)c1ccc(NC(=O)Oc2ccc3c(c2)[C@]2(C)CCN(CCc4ccccc4)[C@@H]2N3C)cc1`, the concentration for half-maximal inhibition (IC50) was above 30000 nM against Acetylcholinesterase [6], 6 nM on Cholinesterase [7] and above 30000 nM against Acetylcholinesterase [8].

Consider `N#Cc1ccc2c(c1)N(CCCN1CCC(O)CC1)c1ccccc1S2` [PERICIAZINE], for which the values for the 50% inhibitory concentration (IC50) on Acetylcholinesterase [2] and against Cholinesterase [1] were 7000 nM and 230 nM, respectively. The Ratio IC50 in assay [3] is 30.

The compound `CCN(CC)C(C)C(=O)N1c2ccccc2Sc2ccccc21` (stereo unspecified) yielded an IC50 against Cholinesterase [1] of 840 nM.

In the case of `O=c1ccc2cc(OCCCCSC[C@@H]3CCCN4CCCC[C@H]34)ccc2o1`, the values for the IC50 on Acetylcholinesterase [2] and at Cholinesterase [1] were 1200 nM and 4300 nM, respectively. Moreover, the Ratio IC50 in assay [3] was 0.28.

Consider `c1ccc2c(c1)Sc1ccccc1C2C[C@@H]1CCCN2CCCC[C@H]12`, for which the IC50 against Acetylcholinesterase [2] stood at 7000 nM; at Cholinesterase [1], 150 nM; in assay [4], 100 nM. Further, the Ratio IC50 in assay [3] was determined as 47.

Consider `O=C(C[C@@H]1CCCN2CCCC[C@H]12)N1c2ccccc2Sc2ccccc21` [HOMOLUPINANOYLPHENOTHIAZINE], for which, on Cholinesterase [1], the half-inhibitory concentration (IC50) was 3000 nM.

As for `O=c1ccc2cc(OCCCSC[C@@H]3CCCN4CCCC[C@H]34)ccc2o1`, the IC50 at Acetylcholinesterase [2] and at Cholinesterase [1] was 5400 nM in each case. Besides, the Ratio IC50 in assay [3] was determined as 0.06.

The compound `C(=C(c1ccccc1)c1ccccc1)[C@@H]1CCCN2CCCC[C@H]12` returned an IC50 on Cholinesterase [1] of 3800 nM.

As to `c1ccc2c(c1)CCc1ccccc1N2C[C@@H]1CCCN2CCCC[C@H]12`, the concentration for half-maximal inhibition (IC50) at Cholinesterase [1] worked out at 2200 nM.

As for `O=C1Nc2cccnc2N(C[C@@H]2CCCN3CCCC[C@H]23)c2ccccc21`, in assay [5], the inhibition stood at 28%.

The compound `c1ccc2c(c1)Cc1ccccc1N2C[C@@H]1CCCN2CCCC[C@H]12` registered an IC50 on Cholinesterase [1] of 1400 nM.

The term IC50 denotes the midpoint of a concentration-inhibition curve. Lower therefore signals inhibition by little substance. One may read the inhibition as how much of the control response was suppressed. A lower inhibition goes with a weak effect.

These data come from ChEMBL document CHEMBL1781988, “Quinolizidinyl derivatives of bi- and tricyclic systems as potent inhibitors of acetyl- and butyrylcholinesterase with potential in Alzheimer's disease” (Eur J Med Chem, 2011).
